Test results from patent US10308643B2, “Heterocyclic compound” (Takeda Pharmaceutical Company Limited, priority 2015, dated 2019).

Legend:
Assay type in all cases: biochemical
HDAC1 enzyme = molecular target: T1, HDAC1 enzyme (Homo sapiens, UniProt Q13547); assay: HDAC1/6 Enzyme Inhibitory Assay (HDAC-Glo I/II Assay kit), HDAC1; conditions: 1 μM test compound, wells without enzyme = 100% inhibition; for inhibition at 1 µM: read-out: HDAC1 inhibitory rate (%) (1 μM)
T1 construct: transducing full length HDAC1 and HDAC6 genes into Sf-9 insect cells; GST; purchased SignalChem; host or cells: Sf-9 insect cells
T1 sequence (Q13547 whole entry): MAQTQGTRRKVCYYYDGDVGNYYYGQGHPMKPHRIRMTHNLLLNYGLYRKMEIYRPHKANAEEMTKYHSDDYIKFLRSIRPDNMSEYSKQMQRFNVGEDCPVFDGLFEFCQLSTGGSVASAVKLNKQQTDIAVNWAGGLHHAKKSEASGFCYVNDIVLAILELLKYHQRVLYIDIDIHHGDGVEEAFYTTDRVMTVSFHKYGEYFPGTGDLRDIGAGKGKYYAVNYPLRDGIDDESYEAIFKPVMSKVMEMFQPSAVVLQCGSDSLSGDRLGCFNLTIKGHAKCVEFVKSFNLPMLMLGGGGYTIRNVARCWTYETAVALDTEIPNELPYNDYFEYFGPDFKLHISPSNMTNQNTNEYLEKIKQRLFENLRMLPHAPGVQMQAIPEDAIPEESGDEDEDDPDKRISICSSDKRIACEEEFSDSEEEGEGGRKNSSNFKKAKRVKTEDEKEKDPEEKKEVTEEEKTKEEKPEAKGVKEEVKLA
Method in brief: (§1)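 Enzyme source: full-length HDAC1/HDAC6, Sf-9, GST-purified. Assay buffer 24 mM Tris-HCl (pH 7.5), 1 mM MgCl2, 0.35 mM KCl, 135 mM NaCl. Compound–enzyme 60 min RT, then HDAC-Glo reagent 20 min RT, luminescence; inhibition relative to no-enzyme control.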

HDAC9 enzyme = molecular target: T2, HDAC9 enzyme (Homo sapiens, UniProt Q9UKV0); assay: HDAC9 Enzyme Inhibitory Assay (HDAC-Glo class IIa); conditions: 1 μM test compound, wells without enzyme = 100% inhibition; for inhibition at 1 µM: read-out: HDAC9 inhibitory rate (%) (1 μM)
T2 construct: transducing full length HDAC9 gene into Sf-9 insect cells; made in house; host or cells: Sf-9 insect cells
T2 sequence (Q9UKV0 whole entry, species assumed): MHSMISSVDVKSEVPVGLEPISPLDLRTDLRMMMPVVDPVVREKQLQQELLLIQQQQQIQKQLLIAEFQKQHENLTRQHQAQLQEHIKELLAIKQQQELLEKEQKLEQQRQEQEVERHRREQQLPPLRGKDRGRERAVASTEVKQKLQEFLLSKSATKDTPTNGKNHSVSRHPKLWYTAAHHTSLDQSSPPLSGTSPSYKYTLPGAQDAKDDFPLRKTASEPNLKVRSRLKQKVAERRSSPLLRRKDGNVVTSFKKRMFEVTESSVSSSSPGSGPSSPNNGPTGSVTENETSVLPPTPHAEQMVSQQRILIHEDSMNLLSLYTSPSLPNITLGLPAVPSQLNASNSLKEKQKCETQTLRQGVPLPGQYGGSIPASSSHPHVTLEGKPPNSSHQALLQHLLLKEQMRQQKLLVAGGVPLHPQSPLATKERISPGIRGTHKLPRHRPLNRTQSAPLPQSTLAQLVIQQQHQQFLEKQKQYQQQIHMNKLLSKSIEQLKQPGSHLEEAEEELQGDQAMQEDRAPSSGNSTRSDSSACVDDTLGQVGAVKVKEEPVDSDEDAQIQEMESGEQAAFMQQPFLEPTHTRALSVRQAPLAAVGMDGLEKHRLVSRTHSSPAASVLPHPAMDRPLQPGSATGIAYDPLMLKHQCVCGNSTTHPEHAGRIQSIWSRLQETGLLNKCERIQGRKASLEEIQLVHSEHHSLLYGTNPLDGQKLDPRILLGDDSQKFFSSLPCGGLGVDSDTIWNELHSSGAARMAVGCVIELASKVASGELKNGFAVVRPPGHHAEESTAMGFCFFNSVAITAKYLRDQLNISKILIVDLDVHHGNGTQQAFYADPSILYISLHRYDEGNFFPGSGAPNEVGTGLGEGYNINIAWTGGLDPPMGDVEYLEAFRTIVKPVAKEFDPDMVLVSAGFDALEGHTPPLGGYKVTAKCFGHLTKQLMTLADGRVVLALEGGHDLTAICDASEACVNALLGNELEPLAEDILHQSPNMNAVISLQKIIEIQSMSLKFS
Method in brief: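 Luminescent HDAC-Glo class IIa readout after a 20 min room-temperature reaction; relative inhibition referenced to enzyme-free wells as 100%. Test compound first preincubated 60 min with Sf-9-expressed, Ni-NTA-purified full-length HDAC9 in pH 7.5 Tris buffer containing 135 mM NaCl, 0.6 mM glutathione and 0.01% Tween-20.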

HDAC6 enzyme = molecular target: T3, HDAC6 enzyme (Homo sapiens, UniProt Q9UBN7); assay: HDAC1/6 Enzyme Inhibitory Assay (HDAC-Glo I/II Assay kit), HDAC6; conditions: 1 μM test compound, wells without enzyme = 100% inhibition; for inhibition at 1 µM: read-out: HDAC6 inhibitory rate (%) (1 μM)
T3 construct: transducing full length HDAC1 and HDAC6 genes into Sf-9 insect cells; GST; purchased SignalChem; host or cells: Sf-9 insect cells
T3 sequence (Q9UBN7 1-1215): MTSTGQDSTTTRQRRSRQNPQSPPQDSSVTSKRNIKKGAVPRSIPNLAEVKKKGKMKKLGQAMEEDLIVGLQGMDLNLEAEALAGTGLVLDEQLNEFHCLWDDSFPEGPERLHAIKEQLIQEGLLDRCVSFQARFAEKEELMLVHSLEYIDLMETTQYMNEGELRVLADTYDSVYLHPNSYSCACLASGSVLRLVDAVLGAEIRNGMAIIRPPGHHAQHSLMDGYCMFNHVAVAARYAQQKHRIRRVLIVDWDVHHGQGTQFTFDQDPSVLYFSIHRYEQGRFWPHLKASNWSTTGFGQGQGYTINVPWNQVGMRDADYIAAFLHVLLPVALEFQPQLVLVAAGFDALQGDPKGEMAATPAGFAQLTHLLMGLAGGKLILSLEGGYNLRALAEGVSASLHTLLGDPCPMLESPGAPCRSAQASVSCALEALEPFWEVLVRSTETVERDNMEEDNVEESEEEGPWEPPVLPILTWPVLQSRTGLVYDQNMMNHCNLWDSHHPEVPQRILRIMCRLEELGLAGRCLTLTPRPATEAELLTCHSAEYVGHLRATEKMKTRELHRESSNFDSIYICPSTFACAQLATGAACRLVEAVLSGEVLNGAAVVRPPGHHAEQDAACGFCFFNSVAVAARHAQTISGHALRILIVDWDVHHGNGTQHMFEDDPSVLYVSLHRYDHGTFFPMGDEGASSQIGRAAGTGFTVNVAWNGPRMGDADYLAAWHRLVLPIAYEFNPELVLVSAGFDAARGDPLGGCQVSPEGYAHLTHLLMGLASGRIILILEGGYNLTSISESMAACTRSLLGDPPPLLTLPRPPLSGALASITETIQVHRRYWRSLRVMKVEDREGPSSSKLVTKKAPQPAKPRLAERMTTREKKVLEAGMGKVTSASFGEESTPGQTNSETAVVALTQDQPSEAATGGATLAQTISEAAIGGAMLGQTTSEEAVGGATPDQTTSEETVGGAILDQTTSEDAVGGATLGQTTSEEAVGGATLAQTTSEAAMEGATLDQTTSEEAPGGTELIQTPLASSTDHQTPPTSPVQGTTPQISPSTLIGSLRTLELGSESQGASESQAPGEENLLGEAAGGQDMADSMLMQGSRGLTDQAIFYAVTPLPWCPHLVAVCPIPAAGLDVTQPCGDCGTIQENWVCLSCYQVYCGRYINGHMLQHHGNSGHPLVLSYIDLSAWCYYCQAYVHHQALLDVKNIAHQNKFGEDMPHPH
Method in brief: as §1

| inhibition at 1 µM (HDAC1 enzyme) | inhibition at 1 µM (HDAC9 enzyme) | inhibition at 1 µM (HDAC6 enzyme) | HDAC1 inhibitory rate (%) (1 μM) (HDAC1 enzyme; 1 µM) | HDAC9 inhibitory rate (%) (1 μM) (HDAC9 enzyme) | HDAC6 inhibitory rate (%) (1 μM) (HDAC6 enzyme; 1 µM) | Compound |
| --- | --- | --- | --- | --- | --- | --- |
| 8% | 60% | 90% |  |  |  | CC1(C(=O)N[C@@H]2CCCC[C@H]2N2Cc3ccc(-c4noc(C(F)(F)F)n4)cc3C2=O)CCC1 [Example 174, 1-methyl-N-((1R,2R)-2-(1-oxo-6-(5-(trifluoromethyl)-1,2,4-oxadiazol-3-yl)-1,3-dihydro-2H-isoindol-2-yl)cyclohexyl)cyclobutanecarboxamide] |
| 78% | 97% | 99% |  |  |  | O=C1c2cc(-c3noc(C(F)(F)F)n3)ccc2CN1[C@H]1CCNC[C@@H]1c1ccccc1 [Example 31, 2-((3S,4S)-3-phenylpiperidin-4-yl)-6-(5-(trifluoromethyl)-1,2,4-oxadiazol-3-yl)isoindolin-1-one] |
| 33% | 90% | 98% |  |  |  | CC(C)(C)OC(=O)N1C[C@@H](N2Cc3ccc(-c4noc(C(F)(F)F)n4)cc3C2=O)[C@H](c2ccccc2)C1 (relative stereo) [Example 2, tert-butyl trans-3-(1-oxo-6-(5-(trifluoromethyl)-1,2,4-oxadiazol-3-yl)-1,3-dihydro-2H-isoindol-2-yl)-4-phenylpyrrolidine-1-carboxylate] |
| 16% | 62% | 100% |  |  |  | CC(C)(C)OC(=O)N[C@@H]1COCC[C@H]1N1Cc2ccc(-c3noc(C(F)(F)F)n3)cc2C1=O [Example 81, tert-butyl ((3S,4R)-4-(1-oxo-6-(5-(trifluoromethyl)-1,2,4-oxadiazol-3-yl)-1,3-dihydro-2H-isoindol-2-yl)tetrahydro-2H-pyran-3-yl)carbamate] |
| 11% | 55% | 99% |  |  |  | O=C(N[C@@H]1CCCC[C@H]1N1Cc2ccc(-c3noc(C(F)(F)F)n3)cc2C1=O)C1CC(F)(F)C1 [Example 125, 3,3-difluoro-N-((1R,2R)-2-(1-oxo-6-(5-(trifluoromethyl)-1,2,4-oxadiazol-3-yl)-1,3-dihydro-2H-isoindol-2-yl)cyclohexyl) cyclobutanecarboxamide] |
| 1% | 32% | 95% |  |  |  | COC1CN(C(=O)N[C@@H]2CCCC[C@H]2N2Cc3ccc(-c4noc(C(F)(F)F)n4)cc3C2=O)C1 [Example 163, 3-methoxy-N-((1R,2R)-2-(1-oxo-6-(5-(trifluoromethyl)-1,2,4-oxadiazol-3-yl)-1,3-dihydro-2H-isoindol-2-yl)cyclohexyl)azetidine-1-carboxamide] |
| 18% | 73% | 99% |  |  |  | Cn1cncc1C(=O)N[C@@H]1CCCC[C@H]1N1Cc2ccc(-c3noc(C(F)(F)F)n3)cc2C1=O [Example 110, 1-methyl-N-((1R,2R)-2-(1-oxo-6-(5-(trifluoromethyl)-1,2,4-oxadiazol-3-yl)-1,3-dihydro-2H-isoindol-2-yl)cyclohexyl)-1H-imidazole-5-carboxamide] |
| 10% | 40% | 98% |  |  |  | O=C(N[C@@H]1CCCC[C@H]1N1Cc2ccc(-c3noc(C(F)(F)F)n3)cc2C1=O)N1CCC(F)(F)C1 [Example 169, 3,3-difluoro-N-((1R,2R)-2-(1-oxo-6-(5-(trifluoromethyl)-1,2,4-oxadiazol-3-yl)-1,3-dihydro-2H-isoindol-2-yl)cyclohexyl)pyrrolidine-1-carboxamide] |
| 9% | 45% | 100% |  |  |  | O=C(N[C@@H]1CCCC[C@H]1N1Cc2ccc(-c3noc(C(F)(F)F)n3)cc2C1=O)[C@H]1CCCO1 [Example 129, (2R)-N-((1R,2R)-2-(1-oxo-6-(5-(trifluoromethyl)-1,2,4-oxadiazol-3-yl)-1,3-dihydro-2H-isoindol-2-yl)cyclohexyl)tetrahydrofuran-2-carboxamide] |
| -4% | 5% | 56% |  |  |  | CN1CCC(C(=O)N[C@@H]2CCCC[C@H]2N2Cc3ccc(-c4noc(C(F)(F)F)n4)cc3C2=O)CC1 [Example 123, 1-methyl-N-((1R,2R)-2-(1-oxo-6-(5-(trifluoromethyl)-1,2,4-oxadiazol-3-yl)-1,3-dihydro-2H-isoindol-2-yl)cyclohexyl)piperidine-4-carboxamide] |
| 14% | 54% | 100% |  |  |  | CN(C(=O)N[C@@H]1CCCC[C@H]1N1Cc2ccc(-c3noc(C(F)(F)F)n3)cc2C1=O)C1CC1 [Example 155, 1-cyclopropyl-1-methyl-3-((1R,2R)-2-(1-oxo-6-(5-(trifluoromethyl)-1,2,4-oxadiazol-3-yl)-1,3-dihydro-2H-isoindol-2-yl)cyclohexyl)urea] |
| 9% | 73% | 36% |  |  |  | CC(C)(C)OC(=O)N1CC[C@@H](c2ccccc2)[C@H](N2Cc3cc(-c4noc(C(F)(F)F)n4)ccc3C2=O)C1 (relative stereo) [Example 71, tert-butyl trans-3-(1-oxo-5-(5-(trifluoromethyl)-1,2,4-oxadiazol-3-yl)-1,3-dihydro-2H-isoindol-2-yl)-4-phenylpiperidine-1-carboxylate] |
| 12% | 68% | 98% |  |  |  | Cn1cnc(C(=O)N[C@@H]2CCCC[C@H]2N2Cc3ccc(-c4noc(C(F)(F)F)n4)cc3C2=O)c1 [Example 101, 1-methyl-N-((1R,2R)-2-(1-oxo-6-(5-(trifluoromethyl)-1,2,4-oxadiazol-3-yl)-1,3-dihydro-2H-isoindol-2-yl)cyclohexyl)-1H-imidazole-4-carboxamide] |
|  |  |  | 9% | 38% | 99% | O=C(N[C@@H]1CCCC[C@H]1N1Cc2ccc(-c3noc(C(F)(F)F)n3)cc2C1=O)C1CCCCCO1 (stereo partly drawn) [Example 133, N-((1R,2R)-2-(1-oxo-6-(5-(trifluoromethyl)-1,2,4-oxadiazol-3-yl)-1,3-dihydro-2H-isoindol-2-yl)cyclohexyl)oxepane-2-carboxamide] |
| 46% | 89% | 98% |  |  |  | C[C@H](c1ccccc1)N1CC[C@@H]2CC[C@@H](N3Cc4ccc(-c5noc(C(F)(F)F)n5)cc4C3=O)[C@@H]21 [Example 62, 2-((3aS,6R,6aR)-1-((1R)-1-phenylethyl)octahydrocyclopenta[b]pyrrol-6-yl)-6-(5-(trifluoromethyl)-1,2,4-oxadiazol-3-yl)isoindolin-1-one] |
| 8% | 82% | 100% |  |  |  | O=C(N[C@@H]1CCCC[C@H]1N1Cc2ccc(-c3noc(C(F)(F)F)n3)cc2C1=O)[C@H]1CC1(F)F [Example 148, (1R)-2,2-difluoro-N-((1R,2R)-2-(1-oxo-6-(5-(trifluoromethyl)-1,2,4-oxadiazol-3-yl)-1,3-dihydro-2H-isoindol-2-yl)cyclohexyl) cyclopropanecarboxamide] |

| Compound | inhibition at 1 µM (HDAC1 enzyme) | inhibition at 1 µM (HDAC9 enzyme) | inhibition at 1 µM (HDAC6 enzyme) | HDAC1 inhibitory rate (%) (1 μM) (HDAC1 enzyme; 1 µM) | HDAC9 inhibitory rate (%) (1 μM) (HDAC9 enzyme) | HDAC6 inhibitory rate (%) (1 μM) (HDAC6 enzyme; 1 µM) |
| --- | --- | --- | --- | --- | --- | --- |
| CC1(C)C(C(=O)N[C@@H]2CCCC[C@H]2N2Cc3ccc(-c4noc(C(F)(F)F)n4)cc3C2=O)C1(C)C [Example 99, 2,2,3,3-tetramethyl-N-((1R,2R)-2-(1-oxo-6-(5-(trifluoromethyl)-1,2,4-oxadiazol-3-yl)-1,3-dihydro-2H-isoindol-2-yl)cyclohexyl) cyclopropanecarboxamide] | 13% | 51% | 100% |  |  |  |
